Reference: patent publication US20240130368A1, “HERBICIDAL COMPOSITION” (Nippon Soda Co., Ltd., priority 2021, published 2024)
Like-named read-outs stand apart in the source and are kept apart here.

How the values were obtained:
Assay type in all cases: in vivo
Ambrosia artemisiifolia = experiment: Test Example 1: seeds on filter paper moistened with chemical solution, herbicidal effect visually evaluated; conditions: Ambrosia artemisiifolia, 144 h, visually evaluated 6 days after treatment
Experimental: As the compound (1), 1-methoxy-3-methyl-6-(1,1-dioxido-8-(trifluoromethyl)thiochroman-5-yl)-7-oxa-3,4-diazabicyclo[4.1.0]hept-4-en-2-one (Compound (I-3)) was used.
(§1) The compound (I) or compound (II) was prepared into a 5% emulsion using DMF (containing 1.5% Tween) and diluted with water to a prescribed dosage concentration. Commercially available preparations were dissolved in water and adjusted to a prescribed dosage concentration.
(§2) Seeds were soaked in 0.6% sodium hypochlorite for a predetermined time for surface sterilization and washed with water for use (seed disinfection). Seeds of Ambrosia artemisiifolia were used for the test.
(§3) Filter paper was placed on a cup (diameter: 10 cm, height: 4 cm) with a lid and moistened with 8 ml of chemical solution, and seeds were sown thereon, and after covering with a lid, grown in a constant temperature room.
(§4) The herbicidal effects were visually evaluated, 6 days after the treatment, as the herbicidal effect (%), by comparing with a state of an untreated group using a total of 21 scores of withering index from 0 to 20 (0: mortality rate equivalent to that of the untreated group, 20: mortality rate of 100%).
(§5) In addition, the expected values of the herbicidal effects were calculated from the herbicidal effects in a case where the compound (I) alone was applied and the herbicidal effects in a case where the compound (II) alone was applied by using the Colby's formula (Colby, S. R., Calculating synergistic and antagonistic responses of herbicide combinations, Weeds, 15, pp. 20-22 (1967)).
(§6) M indicates an herbicidal effect (%) in the application of the compound (I) alone, N indicates an herbicidal effect (%) in the application of the compound (II) alone, and E indicates an expected value (%) of the herbicidal effect in the combined application of the compound (T) and the compound (TT). When the actual measured value (%) of the herbicidal effect in the combined application of the compound (I) and the compound (II) is greater than the expected value E, it can be regarded that the combined application of the compound (I) and the compound (II) has a synergistic effect.

Abutilon theophrasti = experiment: Test Example 3: seeds on filter paper moistened with chemical solution, herbicidal effect visually evaluated; conditions: Compound (I-3) alone, 6 days after the treatment
Experimental: as §1, §2, §3, §4, §5, §6
The herbicidal effects were evaluated by the same method as in Test Example 1 except that the seeds used in the test were changed from Ambrosia artemisiifolia to Abutilon theophrasti.

Zea mays = experiment: Test Example 4: foliar spraying treatment, herbicidal effect from above ground weight (useful plant); conditions: Compound (I-3) alone, 63 gai/ha, 3 weeks after spraying
Experimental: (§7) POA allylphenyl ether (4.1 parts by weight), POE-POP glycol (1 part by weight), POE sorbitan laurate (0.8 parts by weight), glycerin (2.6 parts by weight), dimethylformamide (65.9 parts by weight), N-methylpyrrolidone (5.1 parts by weight), cyclohexanone (15.4 parts by weight), and aromatic hydrocarbons (5.1 parts by weight) were mixed and dissolved to prepare an emulsion. The active ingredient (4 mg) of the composition of the present invention was dissolved in this emulsion (100 μL) to prepare a test emulsion. It should be noted that POA means “polyoxyalkylene”, POE means “polyoxyethylene”, and POP means “polyoxypropylene”.
A 300 cm^2 pot was filled with soil, and seeds of Zea mays, Setaria faberi, Sorghum halepense, Brachiaria platyphylla, Amaranthus palmeri, Senna obtusifolia and Ipomoea hederacea were sown into the surface layer, and then grown in a greenhouse after being covered lightly with soil. When each plant grew to a plant height of 7 to 11 cm, it was used for the test. The test emulsion was diluted so that the amount of the active ingredient became a predetermined amount, and sprayed on the foliage with a small sprayer at a spray water volume of 250 L per hectare.
(§8) For the evaluation of the herbicidal effects, the above ground weights of weeds in the untreated and treated areas were measured for each weed 3 weeks after spraying treatment, and the herbicidal effect (%) was calculated by the following calculation formula.
as §5, with “(1967)). […]” for “(1967)).”

Triticum aestivum = experiment: Test Example 5: spraying on the soil surface, herbicidal effect from above ground weight (useful plant); conditions: Compound (I-3) alone, sprayed on the soil surface, seven weeks after spraying
Experimental: as §7, §8
(§9) Herbicidal effect (%)=[(above ground weight of weeds in untreated area)−(above ground weight of weeds in treated area)/(above ground weight of weeds in untreated area)]×100
(§10) A test emulsion was prepared in the same manner as in Test Example 4.
(§11) A 300 cm^2 pot was filled with soil, and seeds of Triticum aestivum, multidrug-resistant Alopecurus myosuroides, Lolium multiflorum and Avena fatua were sown into the surface layer, and covered with soil to a thickness of 0.5 to 1 cm. The above test emulsion was diluted so that the amount of the active ingredient became a predetermined amount, and sprayed on the soil surface at a spray water volume of 250 L per hectare, followed by growth in an outdoor environment.
(§12) Seven weeks after spraying, the evaluation was carried out in the same manner as in Test Example 4, except that the above ground weights of weeds in the untreated and treated areas were measured for each weed.
The following plants were used as useful plants [scientific names]. • Wheat [Triticum aestivum]

Avena fatua = experiment: Test Example 5: spraying on the soil surface, herbicidal effect from above ground weight; conditions: Compound (I-3) alone, sprayed on the soil surface, seven weeks after spraying
Experimental: as §7, §8, §9, §10, §11, §12
(§13) The following grass species were used as grass species to be controlled [scientific names]. • Blackgrass * [Alopecurus myosuroides] • Italian ryegrass [Lolium multiflorum] • Wild oat [Avena fatua]

Lolium multiflorum = experiment: as above; conditions: Compound (I-3) alone, sprayed on the soil surface, seven weeks after spraying
Experimental: as §7, §8, §9, §10, §11, §12, §13

[1] = tested on: multidrug-resistant Alopecurus myosuroides; experiment: as above; conditions: Compound (I-3) alone, sprayed on the soil surface, seven weeks after spraying, Alopecurus myosuroides multidrug-resistant strain
Experimental: as §7, §8, §9, §10, §11, §12, §13

With `COC12OC1(c1ccc(C(F)(F)F)c3c1CCCS3(=O)=O)C=NN(C)C2=O` (stereo not shown) [Compound (I-3), 1-methoxy-3-methyl-6-(1,1-dioxido-8-(trifluoromethyl)thiochroman-5-yl)-7-oxa-3,4-diazabicyclo[4.1.0]hept-4-en-2-one] the pest or weed control at 3.1 ppm (Ambrosia artemisiifolia; read-out: Herbicidal effect (%), applied alone, amount of active ingredient 3.1 ppm) was 65%, the pest or weed control at 3.1 ppm (Ambrosia artemisiifolia; read-out: Herbicidal effect (%), compound applied alone, amount of active ingredient 3.1 ppm) was 70% and the Herbicidal effect (Abutilon theophrasti; 0.2 ppm) was 75%. For the same compound, the Herbicidal effect (Abutilon theophrasti; 3.1 ppm) was 75%, the “Actual measured value of herbicidal effect” value (shortened to “Actual measured value”) (Zea mays) was 0% and the “Actual measured value” value (Triticum aestivum; 63 gai/ha) was 0%. For the same compound, the “Actual measured value” value (Triticum aestivum; 125 gai/ha) was 0%, the “Actual measured value” value (Avena fatua; 63 gai/ha) was 0% and the “Actual measured value” value (Avena fatua; 125 gai/ha) was 20%. For the same compound, the “Actual measured value” value (Lolium multiflorum; 63 gai/ha) was 60%, the “Actual measured value” value (Lolium multiflorum; 125 gai/ha) was 80% and the “Actual measured value” value ([1]; 63 gai/ha) was 0%. For the same compound, the “Actual measured value” value ([1]; 125 gai/ha) was 30%.
